According to US10800772B2 (Gilead Sciences, Inc., priority 2016, dated 2020):
pEC50: −log10 of the molar value. Like-named read-outs stand apart in the source and are kept apart here.

Tests used:
Type in all cases: cell-based, HIV-1
HIV-IIIb IN T174I BT = assay: Antiviral assay in MT4 cells, HIV-IIIb IN T174I BT virus (from viral breakthrough); conditions: Human immunodeficiency virus 1, IIIB, MT4, 120 h, read-out: T174I BT EC50, MT4 cells, HIV-IIIb IN T174I BT (viral breakthrough), 5 days, CellTiter-Glo
Method: (§1) Antiviral Assay in MT4 Cells
(§2) For the antiviral assay, 0.4 μL of 189X test concentration of 3-fold serially diluted compound in DMSO was added to 40 μL of cell growth medium (RPMI 1640, 10% FBS, 1% Penicillin-Streptomycin, 1% L-Glutamine, 1% HEPES) in each well of 384-well plate (10 concentrations) in quadruplicate.
(§3) 1 mL Aliquots of MT4 cells were pre-infected for 3 hours at 37° C. with 25 μL of cell growth medium (mock-infected) or a fresh 1:250 dilution of an HIV-IIIb (wildtype, IN T174I BT, or IN T174I DE) concentrated ABI stock (0.004 m.o.i.). IN T174I BT virus was derived from viral breakthrough (BT) assay as described in Mulato, A.; Hansen, D.; Thielen, A.; Porter, D.; Stepan, G.; White, K.; Daeumer, M.; Cihlar, T.; Yant, S. R. AIDS Research and Human Retrovirues, July 2016, ahead of print. doi:10.1089/aid.2016.0071. IN T174I DE virus was derived from serial passaging with dose escalation (DE) of test compound. Infected and uninfected cells were diluted in cell growth media and 35 μL (2000 cells) was added to each well of the assay plates.
(§4) Assay plates were then maintained in a humidified, 5% CO2 incubator at 37° C. After 5 days of incubation, 25 μl of 2× concentrated CellTiter-Glo™ Reagent (catalog # G7573, Promega Biosciences, Inc., Madison, Wis.) was added to each well of the assay plate. Cell lysis was carried out by incubating at room temperature for 10 minutes and then chemiluminescence was read using an Envision plate reader (PerkinElmer). EC50 values were calculated as the compound concentration that caused a 50% […] in luminescence signal, a measure of HIV-1 replication.

HIV-IIIb (wildtype) = assay: Antiviral assay in MT4 cells, HIV-IIIb wildtype; conditions: read-out: WT EC50
Method: as §1, §2, §3, §4

HIV-IIIb IN T174I DE = assay: Antiviral assay in MT4 cells, HIV-IIIb IN T174I DE virus (from dose escalation passaging); conditions: Human immunodeficiency virus 1, IIIB, MT4, 120 h, read-out: T174I DE EC50, MT4 cells, HIV-IIIb IN T174I DE (dose escalation), 5 days, CellTiter-Glo
Method: as §1, §2, §3, §4

[1] = Human immunodeficiency virus 1, IIIB, MT4, 120 h
[2] = Human immunodeficiency virus 1, 120 h, MT4 cells, HIV-IIIb wildtype, 5 days, CellTiter-Glo

| Structure (SMILES) | pEC50 (HIV-IIIb IN T174I BT) | pEC50 (HIV-IIIb (wildtype); [1]) | pEC50 (HIV-IIIb IN T174I DE) | pEC50 (HIV-IIIb (wildtype); [2]) |
| --- | --- | --- | --- | --- |
| CC(=O)N1CC[C@H](N2CCC(c3nn(C)c4ccc(-c5nc6cc(C)c([C@H](OC(C)(C)C)C(=O)O)c(-c7ccc(Cl)cc7)c6s5)cc34)CC2)C1 [Compound 11, (S)-2-(2-(3-(1-((S)-1-acetylpyrrolidin-3-yl)piperidin-4-yl)-1-methyl-1H-indazol-5-yl)-7-(4-chlorophenyl)-5-methylbenzo[d]thiazol-6-yl)-2-(tert-butoxy)acetic Acid] | 7.07 | 8.10 | 6.78 |  |
| CC(=O)N1CC[C@@H](N2CCC(c3nn(C)c4ccc(-c5nc6cc(C)c([C@H](OC(C)(C)C)C(=O)O)c(-c7ccc(Cl)cc7)c6s5)cc34)CC2)C1 [Compound 12, (S)-2-(2-(3-(1-((R)-1-acetylpyrrolidin-3-yl)piperidin-4-yl)-1-methyl-1H-indazol-5-yl)-7-(4-chlorophenyl)-5-methylbenzo[d]thiazol-6-yl)-2-(tert-butoxy)acetic Acid] | 7.09 | 8.00 | 6.86 |  |
| Cc1cc2nc(-c3ccc4c(c3)c(N3C5CCC3CN(C3COC3)C5)nn4C)sc2c(-c2ccc(Cl)cc2)c1[C@H](OC(C)(C)C)C(=O)O [Compound 13, (2S)-2-(tert-butoxy)-2-(7-(4-chlorophenyl)-5-methyl-2-(1-methyl-3-(3-(oxetan-3-yl)-3,8-diazabicyclo[3.2.1]octan-8-yl)-1H-indazol-5-yl)benzo[d]thiazol-6-yl)acetic Acid] | 5.91 |  | 5.50 | 8.00 |
| COC(=O)N1CC(N2CCC(c3nn(C(F)F)c4ccc(-c5nc6cc(C)c([C@H](OC(C)(C)C)C(=O)O)c(-c7ccc(Cl)cc7)c6s5)nc34)CC2)C1 [Compound 14, (S)-2-(tert-butoxy)-2-(7-(4-chlorophenyl)-2-(1-(difluoromethyl)-3-(1-(1-(methoxycarbonyl)azetidin-3-yl)piperidin-4-yl)-1H-pyrazolo[4,3-b]pyridin-5-yl)-5-methylbenzo[d]thiazol-6-yl)acetic Acid] | 6.96 | 8.30 | 6.52 |  |
| Cc1cc2nc(-c3cnc4c(n3)c(C3CCN(C5COC5)CC3)cn4C)sc2c(-c2ccc(Cl)cc2)c1[C@H](OC(C)(C)C)C(=O)O [Compound 16, (S)-2-(tert-butoxy)-2-(7-(4-chlorophenyl)-5-methyl-2-(5-methyl-7-(1-(oxetan-3-yl)piperidin-4-yl)-5H-pyrrolo[2,3-b]pyrazin-2-yl)benzo[d]thiazol-6-yl)acetic Acid] | 6.98 | 8.70 | 6.22 |  |
| Cc1cc2nc(-c3ccc4c(c3)c(C3=CCOCC3)nn4C)sc2c(-c2ccc(Cl)cc2)c1[C@H](OC(C)(C)C)C(=O)O [Compound 18, (S)-2-(tert-butoxy)-2-(7-(4-chlorophenyl)-2-(3-(3,6-dihydro-2H-pyran-4-yl)-1-methyl-1H-indazol-5-yl)-5-methylbenzo[d]thiazol-6-yl)acetic Acid] | 5.67 | 7.85 | 5.35 |  |
| Cc1cc2nc(-c3ccc4c(c3)c(C3CCN(C5(C)COC5)CC3)nn4C)sc2c(-c2ccc(Cl)cc2)c1[C@H](OC(C)(C)C)C(=O)O [Compound 20, (S)-2-(tert-butoxy)-2-(7-(4-chlorophenyl)-5-methyl-2-(1-methyl-3-(1-(3-methyloxetan-3-yl)piperidin-4-yl)-1H-indazol-5-yl)benzo[d]thiazol-6-yl)acetic Acid] | 6.54 | 8.15 | 6.27 |  |
| Cc1cc2nc(-c3ccc4c(c3)c(C3CCN(C5COC5)CC3)nn4C)sc2c(-c2ccc(Cl)cc2)c1[C@H](OC1CC1)C(=O)O [Compound 22, (S)-2-(7-(4-chlorophenyl)-5-methyl-2-(1-methyl-3-(1-(oxetan-3-yl)piperidin-4-yl)-1H-indazol-5-yl)benzo[d]thiazol-6-yl)-2-cyclopropoxyacetic Acid] | 7.32 |  | 6.97 | 7.64 |
| Cc1cc2nc(-c3ccc4c(c3)c(C3CCN(C(=O)OC(C)(C)C)CC3)nn4C)sc2c(-c2ccc(Cl)cc2)c1[C@H](OC(C)(C)C)C(=O)O [Compound 23, (S)-2-(tert-butoxy)-2-(2-(3-(1-(tert-butoxycarbonyl)piperidin-4-yl)-1-methyl-1H-indazol-5-yl)-7-(4-chlorophenyl)-5-methylbenzo[d]thiazol-6-yl)acetic Acid] | 6.01 | 7.00 | 6.45 |  |
| CCOC(=O)N1CCC(c2nn(C)c3ccc(-c4nc5cc(C)c([C@H](OC(C)(C)C)C(=O)O)c(-c6ccc(Cl)cc6)c5s4)cc23)CC1 [Compound 24] | 6.11 | 7.80 | 5.96 |  |
| Cc1cc2nc(-c3ccc4c(c3)c(C3CCN(C5CN(C(=O)OC(C)(C)C)C5)CC3)nn4C)sc2c(-c2ccc(Cl)cc2)c1[C@H](OC(C)(C)C)C(=O)O [Compound 28, (S)-2-(tert-butoxy)-2-(2-(3-(1-(1-(tert-butoxycarbonyl)azetidin-3-yl)piperidin-4-yl)-1-methyl-1H-indazol-5-yl)-7-(4-chlorophenyl)-5-methylbenzo[d]thiazol-6-yl)acetic Acid] | 5.74 | 7.14 | 5.65 |  |
| Cc1cc2nc(-c3ccc4c(c3)c(C3CCN(C5CNC5)CC3)nn4C)sc2c(-c2ccc(Cl)cc2)c1[C@H](OC(C)(C)C)C(=O)O [Compound 29, (S)-2-(2-(3-(1-(azetidin-3-yl)piperidin-4-yl)-1-methyl-1H-indazol-5-yl)-7-(4-chlorophenyl)-5-methylbenzo[d]thiazol-6-yl)-2-(tert-butoxy)acetic acid] | 6.19 |  | 6.08 | 7.28 |
| CC(=O)N1CC(N2CCC(c3nn(C)c4ccc(-c5nc6cc(C)c([C@H](OC(C)(C)C)C(=O)O)c(-c7ccc(Cl)cc7)c6s5)cc34)CC2)C1 [Compound 30, (S)-2-(2-(3-(1-(1-acetylazetidin-3-yl)piperidin-4-yl)-1-methyl-1H-indazol-5-yl)-7-(4-chlorophenyl)-5-methylbenzo[d]thiazol-6-yl)-2-(tert-butoxy)acetic acid] | 6.95 | 7.92 | 6.73 |  |
| Cc1cc2nc(-c3ccc4c(c3)c(C3CCN(C5CN(C)C5)CC3)nn4C)sc2c(-c2ccc(Cl)cc2)c1[C@H](OC(C)(C)C)C(=O)O [Compound 31, (S)-2-(tert-butoxy)-2-(7-(4-chlorophenyl)-5-methyl-2-(1-methyl-3-(1-(1-methylazetidin-3-yl)piperidin-4-yl)-1H-indazol-5-yl)benzo[d]thiazol-6-yl)acetic acid] | 6.86 | 7.92 | 6.63 |  |
| CC(=O)N1CC(N2CCC(c3nn(CCN(C)C)c4ccc(-c5nc6cc(C)c([C@H](OC(C)(C)C)C(=O)O)c(-c7ccc(Cl)cc7)c6s5)cc34)CC2)C1 [Compound 33, (S)-2-(2-(3-(1-(1-acetylazetidin-3-yl)piperidin-4-yl)-1-(2-(dimethylamino)ethyl)-1H-indazol-5-yl)-7-(4-chlorophenyl)-5-methylbenzo[d]thiazol-6-yl)-2-(tert-butoxy)acetic acid] | 6.23 | 8.30 | 5.99 |  |
| Cc1cc2nc(-c3ccc4[nH]nc(C5CCN(C6COC6)CC5)c4c3)sc2c(-c2ccc(Cl)cc2)c1[C@H](OC(C)(C)C)C(=O)O [Compound 34, (S)-2-(tert-butoxy)-2-(7-(4-chlorophenyl)-5-methyl-2-(3-(1-(oxetan-3-yl)piperidin-4-yl)-1H-indazol-5-yl)benzo[d]thiazol-6-yl)acetic acid] | 6.01 |  | 5.93 | 7.51 |
